Laboratory results taken from patent US20040047823A1, “Use of ergothioneine and/or its derivatives as an anti-pollution agent” (priority 2003, published 2004).

System: human keratinocytes
Test: Protective effect against ozone-induced peroxides in human keratinocytes (2,7-dichlorofluorescine diacetate / DCF fluorescence)
Type: cell-based
Settings: for % fluorescence observed ±SEM, expressed as % relative to the unprotected controls: ergothioneine 1 mM (24 h pretreatment at 0.5 mM), n=4; for drop in induced stress: ergothioneine 1 mM
Protocol: In a first stage, human keratinocytes obtained from plastic surgeries, inoculated beforehand on D-3 into a 48-well dish at a rate of 25 000 cells/cm^2, are pretreated with ergothioneine dissolved in the culture medium for 24 hours, at a final concentration of 0.5 mM. A marker, 0,2,7-dichlorofluorescine diacetate, is then incorporated: after removing the ergothioneine solution and rinsing with PBS, the human keratinocytes are placed in contact for 30 minutes with a solution of 2,7-dichlorofluorescine diacetate (320 μM in phosphate-buffered saline PBS) at a rate of 500 μl per well, and are then rinsed again with PBS. The cells are then exposed to ozone: after placing the cells in contact with a fresh solution of ergothioneine in PBS at a concentration of 1 mM, at a rate of 100 μl per well, the cells are exposed to ozone in an incubator (37° C., humid atmosphere) with an ozone concentration of 10 ppm. The effects induced by the ozone are then measured by measuring the appearance of 2,7-dichloroflorescine (DCF: excitation at 485 nm and emission at 530 nm) after different exposure times: 0, 5, 10 and 20 minutes. Four independent experiments were performed and each measurement was repeated six times. The appearance of ozone-generated peroxides in the cell is reflected by an increase in the fluorescence. For each time, the fluorescence values of the unprotected controls are set at 100%. The results, in the presence of ergothioneine, are then expressed relative to this control value. A reduction in this value indicates a protective effect of the extract.

With `C[N+](C)(C)[C@@H](Cc1c[nH]c(=S)[nH]1)C(=O)[O-]` [ergothioneine] the “% fluorescence observed ±SEM, expressed as % relative to the unprotected controls” value (5 min. of contact with ozone 10 ppm) was 18.9 ± 2.4%, the “drop in induced stress” value (5 minutes of exposure to ozone 10 ppm) was 81.1% and the “% fluorescence observed ±SEM, expressed as % relative to the unprotected controls” value (10 min. of contact with ozone 10 ppm) was 25.9 ± 3.8%. The “drop in induced stress” value (10 minutes of exposure to ozone 10 ppm) was 74.1%, the “% fluorescence observed ±SEM, expressed as % relative to the unprotected controls” value (20 min. of contact with ozone 10 ppm) was 51.4 ± 10.2% and the “drop in induced stress” value (20 minutes of exposure to ozone 10 ppm) was 48.6%.
